These results are taken from EP2660245A1, “PHYSIOLOGICALLY ACTIVE BIS-DIALKYLAMIDES OF PHOSPHORYL-SUBSTITUTED 1,4-DICARBOXYLIC ACIDS AND METHOD FOR PRODUCING SAME” (Federalnoe Gosudarstvennoe Bydzhetnoe Uchrezhdenie Nauki …, priority 2010, dated 2012).

For data set [1], the system named is rat cortical synaptosomes. As to the kind of experiment: glutamate-induced 45Ca2+ uptake into rat cortical synaptosomes (P2-fraction). Type of data set: cell-based. The settings on record: for activity at 100 µM / IC50: Rattus norvegicus, glutamate-stimulated; for activity at 100 µM / ^45Ca^2+ uptake (% vs. control): 5 min; for activity at 100 µM: compound at 100 µM, synaptosomes of newborn Wistar rats, 5 minutes at 37°C, control = 100%, read-out: ^45Ca^2+ uptake (% vs. control); for IC50: concentration at which 50% inhibition of calcium uptake takes place, four different concentrations; for ^45Ca^2+ uptake (% vs. control): 100 µM. The source says: Neuroprotective action of the synthesized compounds was studied in P2-fraction of the rat brain cortex synaptosomes as an in vitro convenient model for evaluation of the ability of various compounds to influence calcium uptake into the nerve endings. In the present invention, the applicant used the method of detecting the uptake of ^45Ca^2+ into rat cortical synaptosomes when stimulated with glutamic acid.
Synaptosomes were obtained from the cerebral cortex of newborn Wistar rats (9-10 days) according to Hayosh's standard procedure [Hajos F.// Brain Res., 1975, Vol.93, No 3, pp. 485-489]. The brain was homogenized (glass-teflon) in 10 volumes of 0.32 M chilled sucrose (900 rpm). The homogenate was centrifuged for 10 minutes at 1500 g. The resulting supernatant was centrifuged for 20 minutes at 10000 g. To accumulate the radioactive label, the P2-synaptosomal fraction was suspended in incubation buffer A (132 mM NaCl, 5 mM KCl, 5 mM HEPES, 10 mM glucose, pH 7.4 (protein concentration of 1.5-2 mg/ml)). The final concentration of Ca^2+ was 1.25 mM (1.4 µCi/ml). […] glutamate was used to stimulate the uptake of ^45Ca^2+ in synaptosomes. After 5 minutes of the incubation with glutamate at 37°C, the uptake of ^45Ca^2+ was stopped by filtration through GF/B filters (Whatman, England), washing three times with cold buffer B (145 mM KCl, 10 mM Tris, 5.4 mM Trilon B, pH 7.4) [L.N. Petrova, S.O. Bachurin // Bull. Exp. Biol. Med., 2006., Vol. 142, No 7, pp.51-54]. The samples were analyzed by liquid scintillation beta analyzer (Russia). All tests were performed in three parallel replications in 2-3 independent experiments. The amount of ^45Ca^2+ uptaced into synaptosomes was determined by the difference in the content of the label in the glutamate-induced uptake into synaptosomes and uptake into synaptosomes without agonist, and expressed as percentages of the control (control = 100%).
Specific uptake of ^45Ca^2+ was calculated according to the following formula: K(43/21) = [(Ca4-Ca3)/(Ca2-Ca1)]⋅100%, [formula] wherein Ca1 is uptake of ^45Ca^2+ in the control (without glutamate and a test compound), Ca2 is uptake of ^45Ca^2+ in the presence of glutamate, Ca3 is uptake of ^45Ca^2+ in the presence of a test compound (without glutamate), Ca4 is uptake of ^45Ca^2+ in the presence of glutamate and a test compound. Statistical analysis was performed according to Student's test.
Testing of the compounds was performed at a concentration of 100 µM. Compounds 1-9 which have an inhibitory effect on the ^45Ca^2+ uptake into rat cortical synaptosomes were examined in detail at four different concentrations to determine the IC50 value (concentration of a compound at which 50% inhibition of calcium uptake takes place).

Data set [2] in a line: acute toxicity (LD50) according to the standard method. The note with it: in vivo.

Regarding `CCP(=O)(CC)C(CC(=O)O)C(=O)O` (centres unmarked) [Compound 13, 2-(Diethylphosphinoyl)succinic acid, reference compound], the activity at 100 µM in data set [1] came to 120 ± 17.3%.
`CCCCN(CCCC)C(=O)CC(C(=O)N(CCCC)CCCC)P(=O)(CCCC)CCCC` (centres unmarked) [Compound 7, N^1,N^1,N^4,N^4-tetrabutyldiamide of 2-(di-n-butylphosphinoyl)succinic acid]: in data set [1], the activity at 100 µM came out at 0% and the IC50 amounted to 44.7 µM. Moreover, the 50% lethal dose (LD50) in data set [2] was more than 100 mg/kg.
On to `CN(C)c1ccc(P(=O)(c2ccc(N(C)C)cc2)C(CC(=O)O)C(=O)O)cc1` (centres unmarked) [Compound 11, 2-[bis-(4-Dimethylaminophenyl)-phosphinoyl]succinic acid, reference compound], for which, in data set [1], the activity at 100 µM worked out at 117 ± 3.9%.
Take `CCN(CC)C(=O)CC(CP(=O)(c1ccccc1)c1ccccc1)C(=O)N(CC)CC` (centres unmarked) [Compound 10, N^1,N^1,N^4,N^4-tetraethyldiamide of 2-(diphenylphosphinoylmetyl)succinic acid]: in data set [1], the activity at 100 µM turned out to be 63.8 ± 12%. In data set [2], the 50% lethal dose (LD50) is more than 100 mg/kg.
As to `CCCCN(CCCC)C(=O)CC(C(=O)N(CCCC)CCCC)P(=O)(c1ccc(Cl)cc1)c1ccc(Cl)cc1` (centres unmarked) [Compound 5, N^1,N^1,N^4,N^4-tetrabutyldiamide of 2-[bis(4-chlorophenyl)-phosphinoyl]succinic acid], in data set [1], the activity at 100 µM is 11.7 ± 7% and the IC50 was found to be 4.8 µM. The compound also displayed a median lethal dose (LD50) in data set [2] of more than 100 mg/kg.
`CCCCN(CCCC)C(=O)CC(C(=O)N(CCCC)CCCC)P(=O)(c1cc(C)ccc1C)c1cc(C)ccc1C` (centres unmarked) [Compound 3, N^1,N^1,N^4,N^4-tetrabutyldiamide of 2-[bis(2,5-dimethylphenyl)-phosphinoyl]succinic acid]: in data set [1], the activity at 100 µM came to 7.7 ± 6.4% and the IC50 turned out to be 18.6 µM. The compound also gave a median lethal dose (LD50) in data set [2] of more than 100 mg/kg.
For the compound `Cc1ccc(C)c(P(=O)(c2cc(C)ccc2C)C(CC(=O)O)C(=O)O)c1` (centres unmarked) [Compound 12, 2-[bis-(2,5-Dimethylphenyl)-phosphinoyl]succinic acid, reference compound], the activity at 100 µM in data set [1] turned out to be 97.9 ± 11.4%.
`CCCCN(CCCC)C(=O)CP(=O)(c1ccccc1)c1ccccc1` [Compound 16, N,N-Dibutylamide of 2-(diphenylphosphinoyl)acetic acid, reference compound]: the activity at 100 µM in data set [1] worked out at 96.2 ± 2.9%.
Regarding `CCCCN(CCCC)C(=O)CC(C(=O)N(CCCC)CCCC)P(=O)(c1ccc(OC)cc1)c1ccc(OC)cc1` (centres unmarked) [Compound 6, N^1,N^1,N^4,N^4-tetrabutyldiamide of 2-[bis(4-methoxyphenyl)-phosphinoyl]succinic acid], in data set [1], the activity at 100 µM was found to be 7.2 ± 1.3% and the concentration for half-maximal inhibition (IC50) was 17 µM. This compound registered a median lethal dose (LD50) in data set [2] of more than 100 mg/kg.
For the compound `CCCCN(CCCC)C(=O)CC(C(=O)N(CCCC)CCCC)P(=O)(c1ccc(N(C)C)cc1)c1ccc(N(C)C)cc1` (centres unmarked) [Compound 4, N^1,N^1,N^4,N^4-tetrabutyldiamide of 2-[bis(4-dimethylaminophenyl)-phosphinoyl]succinic acid], in data set [1], the activity at 100 µM was determined as 0% and the IC50 was determined as 7.9 µM. This compound also gave an LD50 in data set [2] of more than 100 mg/kg.
For `CCCCN(CCCC)C(=O)CC(C(=O)N(CCCC)CCCC)P(=O)(c1ccccc1C)c1ccccc1C` (centres unmarked) [Compound 2], in data set [1], the “^45Ca^2+ uptake (% vs. control)” value was 6.6±3.3% and the half-inhibitory concentration (IC50) is 9.3 µM. For the same compound, the 50% lethal dose (LD50) in data set [2] was more than 100 mg/kg.
Take `CCN(CC)C(=O)CP(=O)(c1ccccc1)c1ccccc1` [Compound 17, N,N-Diethylamide of 2-(diphenylphosphinoyl)acetic acid, reference compound]: in data set [1], the activity at 100 µM came out at 95.4%.
Take `CCCCN(CCCC)C(=O)CC(CP(=O)(c1cc(C)ccc1C)c1cc(C)ccc1C)C(=O)N(CCCC)CCCC` (centres unmarked) [Compound 9, N^1,N^1,N^4,N^4-tetrabutyldiamide of 2-[bis(2,5-dimethylphenyl)-phosphinoylmethyl]succinic acid]: in data set [1], the activity at 100 µM was 4.9 ± 4.9% and the IC50 came to 5.1 µM. Besides, in data set [2], the 50% lethal dose (LD50) is more than 100 mg/kg.
Regarding `CCCCN(CCCC)C(=O)CC(C(=O)N(CCCC)CCCC)P(=O)(c1ccccc1)c1ccccc1` (centres unmarked) [Compound 1, N^1,N^1,N^4,N^4-tetrabutyldiamide of 2-(diphenylphosphinoyl)succinic acid], in data set [1], the “^45Ca^2+ uptake (% vs. control)” value stood at 0% and the IC50 was 14.1 µM. Also, the LD50 in data set [2] is more than 100 mg/kg.
Regarding `CCCCN(CCCC)C(=O)CC(CP(=O)(c1ccc(OC)cc1)c1ccc(OC)cc1)C(=O)N(CCCC)CCCC` (centres unmarked) [Compound 8, N^1,N^1,N^4,N^4-tetrabutyldiamide of 2-[bis(4-methoxyphenyl)-phosphinoylmethyl]succinic acid], in data set [1], the “^45Ca^2+ uptake (% vs. control)” value was determined as 0% and the IC50 amounted to 15.5 µM. The LD50 in data set [2] is more than 100 mg/kg.
As for `CCN(CC)CC(C(=O)N(CC)CC)P(=O)(c1ccccc1)c1ccccc1` (centres unmarked) [Compound 18, N,N-Diethylamide of 2-(diphenylphosphinoyl)-3-(diethylamino)propionic acid, reference compound], in data set [1], the activity at 100 µM amounted to 97.4%.
